From patent publication US20240132518A1, “CEPHALOSPORIN ANTIBACTERIAL COMPOUND AND PREPARATION METHOD THEREFOR” (priority 2021, published 2024)
≈ marks a conversion by molar mass, not a printed value. Like-named read-outs stand apart in the source and are kept apart here.

Experiments:
[1] = test system: Carbapenem-resistant Pseudomonas aeruginosa (CRPA); assay: Antibacterial MIC assay (ID-CAMHB), carbapenem-resistant Pseudomonas aeruginosa; type: cell-based
Method: (§1) 1. The test compounds were dissolved in sterile normal saline, vortexed for uniformly mixing, and diluted in a 2-fold dilution with the sterile normal saline (11 concentration points in total). The test concentration range was 32-0.031 μg/mL, and two duplicate wells were set for each concentration. Additional wells without drug dosing were set as growth controls.
(§2) 2. 4 μL of the diluent was added to 196 μL of the bacterial suspension in a 96-well plate (the bacterial count in the bacterial suspension was 2-8×10^5 colony forming units/mL).
(§3) The minimum inhibitory concentration (MIC) assay was performed with reference to the Clinical and Laboratory Standards Institute (CLSI) guidelines.

[2] = test system: Carbapenem-resistant Acinetobacter baumannii (CRAB); assay: Antibacterial MIC assay (ID-CAMHB), carbapenem-resistant Acinetobacter baumannii; type: cell-based
Method: as §1, §2, §3

[3] = Pharmacokinetic study in ICR mice; type: in vivo; settings: plasma; for AUC(0-inf) / AUC(0-t) / Cmax / Tmax / half-life: both sexes, mouse, sc
Method: The formulation for administration was prepared on ice. A proper amount of the test compound was precisely weighed out, and a 90% volume of normal saline was slowly added. The mixture was ultrasonically stirred in an ice-water bath until no large pieces existed. After the mixture was well mixed, a 1 M NaOH solution was added in small portions using a pipette.
• Species and strain: ICR mice • Animal grade: SPF • Animal source: Medicilon: 999M-018
Administration by subcutaneous injection: 3 mice/sex/time point; blood samples were collected at 9 time points: 0.083 h, 0.25 h, 0.5 h, 1 h, 2 h, 4 h, 6 h, 8 h and 24 h after administration. The collected blood samples were placed in EDTA-K2 anticoagulation blood collection tubes. The collected whole blood was placed on ice and centrifuged at 6800 g at 2-8° C. for 6 min to separate plasma within 1 h. After the centrifugation, the plasma was transferred to a centrifuge tube to which a plasma stabilizer had been added in advance (plasma:concentrated phosphoric acid=100:0.2; for example, 1 μL of 10% concentrated phosphoric acid was added to 50 μL of plasma). All the animals were subjected to careful clinical observation before administration and at each of the blood collection time points after administration, and the adverse reaction symptoms in the animals were recorded.

[4] = test system: Control strain (Pseudomonas aeruginosa) ATCC 27853; assay: Antibacterial MIC assay (ID-CAMHB), control strain Pseudomonas aeruginosa; type: cell-based; settings: ATCC27853, ID-CAMHB, control strain ATCC 27853, read-out: MIC
Method: as §1, §2, §3

[5] = test system: Control strain (Escherichia coli) ATCC 25922; assay: Antibacterial MIC assay (ID-CAMHB), control strain Escherichia coli; type: cell-based; settings: ATCC25922, ID-CAMHB, control strain ATCC 25922, read-out: MIC
Method: as §1, §2, §3

[6] = Pharmacokinetic study in cynomolgus monkeys; type: in vivo; settings: cynomolgus monkey, plasma, 10 mg/kg single intravenous infusion, individual animals
Method: An appropriate amount of a test compound was weighed precisely and added to a container, and 0.9% sodium chloride injection and 0.2 M NaOH solution were added thereto in an ice bath until the test compound was completely dissolved, so that a sample solution at a concentration of 2 mg/mL was obtained followed by storage at 2-8° C. for later use.
• Species and strain: cynomolgus monkey • Animal grade: general grade • Animal source: Guangxi Xiongsen Primate Experimental Animal Breeding Development Co., Ltd. • Number of the using of laboratory animal: SYXK (Su) 2019-0012
6 cynomolgus monkeys (half male and half female) were selected and randomly divided into 3 groups with 1 animal/sex in each group. The cynomolgus monkeys were administered with the test sample at a dose of 10 mg/kg by the single intravenous infusion. Blood samples were collected from each group of animals at the following time points: before administration, and 5 min, 15 min, 0.5 h, 1 h, 2 h, 4 h, 6 h, and 8 h after administration. In the test, the concentration of each test compound in the plasma of the cynomolgus monkey was detected by the LC-MS/MS method, and the lower limits of quantification of the analysis methods for the plasma samples were all 1 μg/mL. The plasma concentration data were analyzed by the non-compartmental analysis (NCA) of the analysis software for pharmacokinetic data, WinNonlin, pharmacokinetic parameters were calculated, and pharmacokinetic characteristics of the test compounds in cynomolgus monkeys after administration were investigated, with the results shown in the following table.

[7] = test system: Carbapenem-resistant Enterobacteriaceae (CRE, Klebsiella pneumoniae); assay: Antibacterial MIC assay (ID-CAMHB), carbapenem-resistant Enterobacteriaceae; type: cell-based
Method: as §1, §2, §3

[8] = strain FDA-CDC AR-BANK#0063, AMR gene OXA-23, OXA-65, OXA-24, sul2, read-out: MIC
[9] = 10 mg/kg subcutaneous injection
[10] = 100 mg/kg subcutaneous injection
[11] = both sexes, cynomolgus, iv, 10 mg/kg
[12] = strain FDA-CDC AR-BANK#0453, AMR gene KPC-3, OmpK35, oqxA, oqxB, SHV-11, TEM-1B

Molecule `CC(C)(O/N=C(\C(=O)N[C@@H]1C(=O)N2C(C(=O)[O-])=C(C[N+]3(CCCN(CCCNC(=O)c4ccc(O)c(O)c4Cl)C(=O)c4ccc(O)c(O)c4Cl)CCCC3)CS[C@H]12)c1csc(N)n1)C(=O)O` [Compound 3] has an MIC ([1]; strain FDA-CDC AR-BANK#0439, AMR gene aac(6′)-Il, aadA1b, BCR1, IMP-18, OXA-50) of 0.125 µg/mL (≈ 0.126 µM), an MIC ([1]; strain FDA-CDC AR-BANK#0441, AMR gene KPC-2, read-out: MIC) of 2 µg/mL (≈ 2.01 µM) and an MIC ([1]; strain FDA-CDC AR-BANK#0444, AMR gene aac(6′)-Il, dfrB5, OXA-4, tet(G), VIM-2, read-out: MIC) of 2 µg/mL (≈ 2.01 µM). It also gave an MIC ([1]; strain FDA-CDC AR-BANK#0457, AMR gene aadA6, VIM-2, read-out: MIC) of 0.25 µg/mL (≈ 0.252 µM), an MIC ([2]; strain FDA-CDC AR-BANK#0036, AMR gene strB, OXA-65, OXA-24, strA, sul2, read-out: MIC) of 0.25 µg/mL (≈ 0.252 µM) and an MIC ([2]; strain FDA-CDC AR-BANK#0052, AMR gene OXA-58, OXA-100, sul2) of 0.125 µg/mL (≈ 0.126 µM). The MIC [2, 8] was greater than 32 µg/mL, the MIC ([2]; strain FDA-CDC AR-BANK#0070, AMR gene OXA-58, OXA-100, sul2) was 0.125 µg/mL (≈ 0.126 µM) and the MIC ([2]; strain FDA-CDC AR-BANK#0101, AMR gene strB, OXA-65, OXA-24, strA, sul2, read-out: MIC) was 0.5 µg/mL (≈ 0.503 µM). For the same molecule, the AUMC0-inf [3, 9] was 86.9 h · h · ug · mL^−1, the AUMC0-t [3, 9] was 80.3 h · h · ug · mL^−1 and the Kel [3, 9] was 1.04 h⁻¹. For the same molecule, the MRTPO [3, 9] was 47.4 min, the AUMC0-inf [3, 10] was 880.4 h · h · ug · mL^−1 and the AUMC0-t [3, 10] was 871.4 h · h · ug · mL^−1. For the same molecule, the Kel [3, 10] was 1.64 h⁻¹, the MRTPO [3, 10] was 47.8 min and the AUC(0-inf) [3, 9] was 110 µg·h/mL. It also gave an AUC(0-t) [3, 9] of 109 µg·h/mL, a Cmax [3, 9] of 114 µg/mL and a Tmax [3, 9] of 15 min. For the same molecule, the half-life [3, 9] was 39.9 min, the AUC(0-inf) [3, 10] was 1100 µg·h/mL and the AUC(0-t) [3, 10] was 1100 µg·h/mL. For the same molecule, the Cmax [3, 10] was 936 µg/mL, the Tmax [3, 10] was 30 min and the half-life [3, 10] was 25.3 min. It also gave an MIC [4] of 0.25 µg/mL (≈ 0.252 µM), an MIC [5] of 0.0625 µg/mL (≈ 0.0629 µM) and an AUC(0-inf) [6, 11] of 166 µg·h/mL. It also gave an AUC(0-t) [6, 11] of 149 µg·h/mL, a clearance [6, 11] of 1 mL/min/kg and a half-life [6, 11] of 154 min. The Cmax ([6]; both sexes, cynomolgus, iv, 10 mg/kg, read-out: Cmax) was 55.2 µg/mL, the MRT ([6]; both sexes, cynomolgus, iv, 10 mg/kg, read-out: MRT) was 2.5 h and the Vd ([6]; both sexes, cynomolgus, iv, 10 mg/kg, read-out: Vd) was 223 mL/kg. For the same molecule, the Tmax ([6]; both sexes) was 4.8 min, the AUC last ([6]; 10 mg/kg) was 140.08 µg·h/mL and the AUCinf ([6]; 10 mg/kg) was 153.20 µg·h/mL. For the same molecule, the CL ([6]; 10 mg/kg) was 65.27 mL/h/kg, the Cmax ([6]; 10 mg/kg) was 48.60 µg/mL and the MRT ([6]; 10 mg/kg) was 2.49 h. It also gave a Vd ([6]; 10 mg/kg) of 213.11 mL/kg, a t1/2 ([6]; 10 mg/kg) of 2.26 h and an MIC ([7]; strain FDA-CDC AR-BANK#0361, AMR gene TEM-1, SHV-12, KPC-2) of 0.5 µg/mL (≈ 0.503 µM). For the same molecule, the MIC ([7]; strain FDA-CDC AR-BANK#0362, AMR gene TEM-1, SHV-11, KPC-2) was 0.125 µg/mL (≈ 0.126 µM), the MIC ([7]; strain FDA-CDC AR-BANK#0363, AMR gene TEM-1, SHV-12, KPC-2) was 0.125 µg/mL (≈ 0.126 µM) and the MIC ([7]; strain FDA-CDC AR-BANK#0438, AMR gene aph(3′)-Ia, dfrA12, KPC-3, OmpK35, oqxA, oqxB, SHV-11) was 0.25 µg/mL (≈ 0.252 µM). It also gave an MIC [7, 12] of 0.5 µg/mL (≈ 0.503 µM).
`CC(C)(O/N=C(\C(=O)N[C@@H]1C(=O)N2C(C(=O)[O-])=C(C[N+]3(CCNC(=O)c4ccc(O)c(O)c4Cl)CCCC3)CS[C@H]12)c1csc(N)n1)C(=O)O` [Cefiderocol, reference compound] showed an MIC [2, 8] of 4 µg/mL (≈ 5.32 µM), an AUMC0-inf [3, 10] of 150.7 h · h · ug · mL^−1 and an AUMC0-t [3, 10] of 150.3 h · h · ug · mL^−1. For the same molecule, the Kel [3, 10] was 1.45 h⁻¹, the MRTPO [3, 10] was 34.6 min and the AUC(0-inf) [3, 10] was 261 µg·h/mL. For the same molecule, the AUC(0-t) [3, 10] was 261 µg·h/mL, the Cmax [3, 10] was 363 µg/mL and the Tmax [3, 10] was 15 min. The half-life [3, 10] was 28.6 min, the Vd ([6]; 10 mg/kg) was 379.63 mL/kg and the MIC [7, 12] was 1 µg/mL (≈ 1.33 µM).
